The values that follow come from patent publication US10799590B2, “Compositions containing a bitter tastant and at least one sophorolipid, and methods of reducing bitter taste attributed to a bitter tastant in an edible composition” (The United States of America, as Represented by the …, priority 2015, dated 2020).

The assay concerns the target T1, sweet receptor (T1R2+T1R3) (Homo sapiens, UniProt Q7RTX0).
T1 construct: culture human fungiform taste papillae cells retaining their physiological and molecular characteristics; endogenous in cells; host or cells: cultured primary human fungiform taste papillae (HBO) cells
T1 sequence (Q7RTX0 21-852): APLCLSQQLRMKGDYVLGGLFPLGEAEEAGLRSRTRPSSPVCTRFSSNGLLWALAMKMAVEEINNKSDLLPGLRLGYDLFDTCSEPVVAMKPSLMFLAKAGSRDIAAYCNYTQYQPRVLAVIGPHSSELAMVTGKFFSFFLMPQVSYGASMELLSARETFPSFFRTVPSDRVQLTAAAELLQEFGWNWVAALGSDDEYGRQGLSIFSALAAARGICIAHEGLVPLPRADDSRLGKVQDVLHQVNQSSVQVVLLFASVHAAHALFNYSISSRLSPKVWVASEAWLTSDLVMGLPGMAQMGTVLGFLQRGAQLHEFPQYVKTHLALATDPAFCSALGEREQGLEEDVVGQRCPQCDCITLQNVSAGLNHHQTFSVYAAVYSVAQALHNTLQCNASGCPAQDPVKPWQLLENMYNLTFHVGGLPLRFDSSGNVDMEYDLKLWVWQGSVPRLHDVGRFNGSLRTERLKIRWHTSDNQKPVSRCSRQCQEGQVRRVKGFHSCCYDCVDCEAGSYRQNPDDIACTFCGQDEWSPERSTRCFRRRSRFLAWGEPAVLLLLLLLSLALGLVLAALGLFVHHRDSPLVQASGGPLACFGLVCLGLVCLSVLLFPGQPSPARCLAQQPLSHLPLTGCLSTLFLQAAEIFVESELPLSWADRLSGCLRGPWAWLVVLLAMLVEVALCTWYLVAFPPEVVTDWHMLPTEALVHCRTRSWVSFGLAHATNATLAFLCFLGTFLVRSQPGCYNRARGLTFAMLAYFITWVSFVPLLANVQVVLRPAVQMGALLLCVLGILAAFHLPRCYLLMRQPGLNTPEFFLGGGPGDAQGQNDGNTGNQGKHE
T1 sequence (Q8TE23 20-839 partner): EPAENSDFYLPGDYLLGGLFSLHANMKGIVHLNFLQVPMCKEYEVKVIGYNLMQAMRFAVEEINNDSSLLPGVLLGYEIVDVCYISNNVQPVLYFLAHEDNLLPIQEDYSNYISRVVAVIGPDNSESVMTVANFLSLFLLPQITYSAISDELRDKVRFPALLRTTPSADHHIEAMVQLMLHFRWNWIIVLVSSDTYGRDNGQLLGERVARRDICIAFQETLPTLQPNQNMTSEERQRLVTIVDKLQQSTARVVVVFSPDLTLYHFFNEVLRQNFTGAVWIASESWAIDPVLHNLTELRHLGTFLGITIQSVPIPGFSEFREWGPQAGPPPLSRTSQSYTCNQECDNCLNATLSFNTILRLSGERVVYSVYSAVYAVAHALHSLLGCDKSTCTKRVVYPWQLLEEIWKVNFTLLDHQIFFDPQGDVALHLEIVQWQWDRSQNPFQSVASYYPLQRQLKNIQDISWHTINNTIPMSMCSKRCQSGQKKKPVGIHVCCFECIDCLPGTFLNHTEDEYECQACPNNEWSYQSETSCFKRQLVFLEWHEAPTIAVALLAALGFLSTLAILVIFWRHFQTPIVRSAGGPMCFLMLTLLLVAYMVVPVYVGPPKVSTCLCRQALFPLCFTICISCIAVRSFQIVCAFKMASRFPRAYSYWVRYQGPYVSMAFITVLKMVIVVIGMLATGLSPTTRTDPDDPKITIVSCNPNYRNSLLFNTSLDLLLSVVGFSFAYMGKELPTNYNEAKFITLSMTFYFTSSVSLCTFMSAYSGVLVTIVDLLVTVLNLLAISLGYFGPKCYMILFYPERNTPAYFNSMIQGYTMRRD
The assay can be described thus: Lactisole sensitivity of sophorolipid-induced calcium responses in cultured HBO cells. The format is cell-based. Particulars: lactisole = T1R3 blocker; C16-SL-responsive cells n=29 (FIG. 4). From the text: In vitro cell-based assay of sweet property. Establishment and maintenance of cultures of human fungiform taste papillae cells (HBO cells): We previously established the current proprietary protocol (Ozdener, H., et al., Chem. Senses, 31(3): 279-90 (2006); Ozdener, M. H., et al., Chem. Senses, 36(7): 601-12 (2011); Ozdener, H., et al., Isolation and culture of human fungiform taste papillae cells, J. Vis. Exp., 2012 May 17;(63):e3730) which allowed us to culture human fungiform taste papillae cells retaining their physiological and molecular characteristics for more than a year.
The human fungiform taste papillae cells were cultured according to protocols that we have published (Ozdener et al. 2006, Ozdener et al. 2011). […]
Calcium imaging: Cultured taste cells grown for 3-4 days glass coverslips which were loaded for 30-60 min with the calcium sensitive dye fura-2 by incubating the cells in Ringer solution (145 mM NaCl, 5 mM KCl, 1 mM MgCl2, 1 mM CaCl2, 1 mM Na-pyruvate, 20 mM Hepes-Na and Cellobiose 15 mM, pH 7.2 with osmolarity adjusted to 300-310 by 5M NaCl) supplemented with […] (Molecular Probes Inc., Eugene, Oreg.) and 10 mg/ml Pluronic® F127 (Molecular Probes Inc.). […] Stimuli were dissolved in Ringer and then pH and osmolarity readjusted if needed. […]

Consider `OC[C@H]1O[C@@H](O[C@@H]2[C@@H](O)[C@H](O)[C@@H](CO)O[C@H]2O)[C@H](O)[C@@H](O)[C@@H]1O` [Sophorose, 2-O-β-D-glucopyranosyl-β-D glucopyranose], for which the “effect of lactisole on induced Ca responses, lactisole-sensitive HBO cells” value is listed as “lactisole sensitive”.
